Experimental data: patent US20100248223A1, “ASSESSING OUTCOMES FOR BREAST CANCER PATIENTS” (MAYO FOUNDATION FOR MEDICAL EDUCATION AND RESEARCH, priority 2006, published 2010)
Read-outs that look alike come from different tables or passages of the source. One block for each compound: values may come before it.

Assays:
[1] = target: CYP2D6 enzyme system (Homo sapiens, UniProt P10635); settings: classification from cited literature; cited from earlier work
[2] = system: resected ER positive breast cancer; settings: for 9 year RFS rate / 5-year DFS: node negative
Excerpt: Patients. […] Postmenopausal women with node-negative disease were required to have stage T1c or T2N0M0 cancer and could be any age, whereas women with node-positive disease were required to be at least 65 years of age with a tumor stage T1 (any N) or T2N1M0. […] Patients were surgically treated with either a modified radical mastectomy or breast conservative therapy including lumpectomy, axillary nodal dissection, and radiation therapy. The axillary dissection must have involved at least levels I and II and the examination of at least 6 axillary nodes. […] Postlumpectomy radiation therapy consisted of a total cumulative breast dose of 5040 cGy in 28 fractions, and those with axillary nodal involvement also received radiation to the axilla and supraclavicular regions. Patients were classified as ER positive if resected breast tissue contained ≧10 fmol of ER polypeptide/mg cytosol protein or was positive for ER polypeptide by an immunohistochemical assay. All patients were randomized within 6 weeks of definitive surgery.
Patients were stratified based on axillary lymph node status (0, 1-3, 4-9 vs. 10 or more), age (<65 years vs. >65), primary tumor size (<3 cm vs. >3 cm), ER status (10-49 fmol vs. 50 fmol or greater vs. positive by immunohistochemical assay), and extent of surgery (mastectomy vs. breast conservation therapy).
Study Design and End Points. One objective of this study was to examine the relationship between the HOXB13:IL-17BR expression ratio and clinical outcomes of relapse-free survival, disease-free survival, and overall survival. Relapse-free survival (RFS) was defined as the time from randomization to documentation of the first of the following events: any recurrence (local, regional or distant) of breast cancer, a contralateral breast cancer or death. When estimating the distribution of RFS, patients who developed a non-breast second primary cancer (other than squamous or basal cell carcinoma of the skin, carcinoma in situ of the cervix, or lobular carcinoma in situ of the breast) prior to the diagnosis of a breast event were censored on the day their second primary was diagnosed. Patients who were alive without a breast recurrence, contralateral breast cancer or a second non-breast primary cancer were censored at the date of their last disease evaluation. Disease-free survival (DFS) was defined as the time from randomization to documentation of the first of the following events: any recurrence (local, regional or distant) of breast cancer, a contralateral breast cancer, a second primary cancer, or death due to any cause. Patients who were alive without any of these events were censored at the date of their last disease evaluation. Overall survival (OS) was estimated as the time from registration to death due to any cause.
Relapse-free (RF) time was defined as the time from randomization to documentation of a breast event where a breast event is any recurrence (local, regional, or distant) of breast cancer or the documentation of contralateral breast cancer (including ductal carcinoma in situ). When estimating the distribution of RF time, patients who developed a non-breast second primary cancer (other than squamous or basal cell carcinoma of the skin, carcinoma in situ of the cervix, or lobular carcinoma in situ of the breast) prior to the diagnosis of a breast event were censored on the day their second primary was diagnosed. Patients (alive or dead) without a breast recurrence, contralateral breast cancer or a second non-breast primary cancer were censored at the date of their last disease evaluation.
Disease-free survival (DFS) was defined as the time from randomization to documentation of the first of the following events: any recurrence (local, regional or distant) of breast cancer, the documentation of contralateral breast cancer, or death due to any cause.

[3] = patients with gene expression data (n=206), oral tamoxifen 20 mg daily for 5 years

CYP2D6 enzyme system, sequence (P10635 whole entry): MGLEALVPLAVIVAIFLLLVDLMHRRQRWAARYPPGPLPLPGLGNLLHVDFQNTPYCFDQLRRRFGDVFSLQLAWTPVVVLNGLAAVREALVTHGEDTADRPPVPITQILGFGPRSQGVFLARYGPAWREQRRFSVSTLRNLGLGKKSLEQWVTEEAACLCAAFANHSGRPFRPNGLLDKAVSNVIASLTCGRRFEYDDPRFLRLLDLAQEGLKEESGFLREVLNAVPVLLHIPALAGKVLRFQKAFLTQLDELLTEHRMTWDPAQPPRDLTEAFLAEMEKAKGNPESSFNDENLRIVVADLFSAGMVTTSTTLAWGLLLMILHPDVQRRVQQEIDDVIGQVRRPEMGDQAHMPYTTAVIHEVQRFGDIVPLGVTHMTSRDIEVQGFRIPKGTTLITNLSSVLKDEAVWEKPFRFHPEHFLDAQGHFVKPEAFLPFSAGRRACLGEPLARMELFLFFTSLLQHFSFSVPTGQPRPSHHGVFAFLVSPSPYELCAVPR

SMILES: Fc1ccc([C@@H]2CCNC[C@H]2COc2ccc3c(c2)OCO3)cc1 [paroxetine]
strength of inhibition of the CYP2D6 enzyme system [1]: potent

SMILES: CN(C)CCC=C1c2ccccc2COc2ccccc21 [doxepin]
strength of inhibition of the CYP2D6 enzyme system [1]: moderate

SMILES: CN/C(=N/CCSCc1nc[nH]c1C)NC#N [cimetidine]
strength of inhibition of the CYP2D6 enzyme system [1]: moderate

SMILES: CN[C@H]1CC[C@@H](c2ccc(Cl)c(Cl)c2)c2ccccc21 [sertraline]
strength of inhibition of the CYP2D6 enzyme system [1]: moderate

SMILES: O=C(CCCN1CCC(O)(c2ccc(Cl)cc2)CC1)c1ccc(F)cc1 [haloperidol]
strength of inhibition of the CYP2D6 enzyme system [1]: moderate

patients reporting mild (grade 1) hot flashes (223 patients): 40%
patients reporting moderate (grade 2) hot flashes (223 patients): 15%
patients reporting severe (grade 3) hot flashes (223 patients): 5%
% of patients who developed moderate or severe hot flashes (CYP2D6 (*4) *4/Wt genotype): 9/40 (23%)
% of patients who developed moderate or severe hot flashes (CYP2D6 (*4) Wt/Wt genotype): 27/137 (20%)
% of patients who developed moderate or severe hot flashes (CYP2D6 *4/WT or WT/WT genotypes (n=177)): 20%
% of patients who developed moderate or severe hot flashes (CYP3A5 (*3) A/A genotype): 1/6 (17%)
% of patients who developed moderate or severe hot flashes (CYP3A5 (*3) G/A genotype): 6/24 (25%)
% of patients who developed moderate or severe hot flashes (CYP3A5 (*3) G/G genotype): 37/175 (21%)
SMILES: CC/C(=C(\c1ccccc1)c1ccc(OCCN(C)C)cc1)c1ccccc1 [tamoxifen]
9 year RFS rate ([2]; Goetz index high risk): 46%
9 year RFS rate ([2]; Goetz index intermediate risk): 65%
9 year RFS rate ([2]; Goetz index low risk): 87%
5-year DFS ([2]; risk profile 1: 2-gene ratio <−1.339, CYP2D6 extensive): 94%
5-year DFS ([2]; risk profile 3: 2-gene ratio >−1.339, CYP2D6 extensive): 83%
5-year DFS ([2]; risk profile 4: 2-gene ratio >−1.339, CYP2D6 decreased): 57%
Kaplan-Meier estimate for the 5 year DFS [2, 3]: 74.3%
Kaplan-Meier estimate for the 5 year OS [2, 3]: 78.2%
Kaplan-Meier estimate for the 5 year RFS [2, 3]: 75.6%
